Experimental data: PubChem BioAssay AID1918938 (Molecular Pharmacology Branch, DTP, NCI, 2023)

System: 556581-035-R-J1-PDC complex spheroid viability
Assay: Anticancer human tumor 556581-035-R-J1-PDC patient-derived ovarian carcinoma cell line growth inhibition
Details: for IC50: curve of first compound; for viability, T/C: stronger effect = lower value
Method in brief: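 Drug combinations with the LSD1 inhibitor iadademstat tested on tumor cells co-cultured as spheroids with endothelial cells and mesenchymal stem cells. Concentrations descended in half-log increments from clinical Cmax or 10 microM.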

[1] = second compound 0.1 µM, first compound 0.0316 µM
[2] = second compound 0.1 µM, first compound 0.1 µM
[3] = second compound 0.316 µM, first compound 0.0316 µM
[4] = second compound 0.316 µM, first compound 0.1 µM
[5] = second compound 1 µM, first compound 0.0316 µM
[6] = second compound 1 µM, first compound 0.1 µM
[7] = second compound 3.16 µM, first compound 0.0316 µM
[8] = second compound 3.16 µM, first compound 0.1 µM
[9] = second compound 10 µM, first compound 0.0316 µM
[10] = second compound 10 µM, first compound 0.1 µM
[11] = second compound 0.1 µM, first compound 0.000949 µM
[12] = second compound 0.1 µM, first compound 0.003 µM
[13] = second compound 0.1 µM, first compound 0.00949 µM
[14] = second compound 0.1 µM, first compound 0.03 µM
[15] = second compound 0.1 µM, first compound 0.0949 µM
[16] = second compound 0.1 µM, first compound 0.3 µM
[17] = second compound 0.316 µM, first compound 0.000949 µM
[18] = second compound 0.316 µM, first compound 0.003 µM
[19] = second compound 0.316 µM, first compound 0.00949 µM
[20] = second compound 0.316 µM, first compound 0.03 µM
[21] = second compound 0.316 µM, first compound 0.0949 µM
[22] = second compound 0.316 µM, first compound 0.3 µM
[23] = second compound 1 µM, first compound 0.000949 µM
[24] = second compound 1 µM, first compound 0.003 µM
[25] = second compound 1 µM, first compound 0.00949 µM
[26] = second compound 1 µM, first compound 0.03 µM
[27] = second compound 1 µM, first compound 0.0949 µM
[28] = second compound 1 µM, first compound 0.3 µM
[29] = second compound 3.16 µM, first compound 0.000949 µM
[30] = second compound 3.16 µM, first compound 0.003 µM
[31] = second compound 3.16 µM, first compound 0.00949 µM
[32] = second compound 3.16 µM, first compound 0.03 µM
[33] = second compound 3.16 µM, first compound 0.0949 µM
[34] = second compound 3.16 µM, first compound 0.3 µM
[35] = second compound 10 µM, first compound 0.000949 µM
[36] = second compound 10 µM, first compound 0.003 µM
[37] = second compound 10 µM, first compound 0.00949 µM
[38] = second compound 10 µM, first compound 0.03 µM
[39] = second compound 10 µM, first compound 0.0949 µM
[40] = second compound 10 µM, first compound 0.3 µM
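Note: spheroids exposed to agents for seven days.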
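Throughout, for viability, T/C: 100% = DMSO vehicle control wells.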

## CC(C)CC(NC(=O)C(Cc1ccccc1)NC(=O)c1cnccn1)B(O)O (stereo not given) + NC1CCC(NC2CC2c2ccccc2)CC1
Second compound 0.1 µM
  IC50: < 0.316 nM
Second compound 0.316 µM
  IC50: < 0.316 nM
Second compound 1 µM
  IC50: < 0.316 nM
Second compound 3.16 µM
  IC50: < 0.316 nM
Second compound 10 µM
  IC50: < 0.316 nM
Second compound 0.1 µM, first compound 0.000316 µM
  viability, T/C: 7.87%
Second compound 0.1 µM, first compound 0.001 µM
  viability, T/C: 0.11%
Second compound 0.1 µM, first compound 0.00316 µM
  viability, T/C: 0.13%
Second compound 0.1 µM, first compound 0.01 µM
  viability, T/C: 0.13%
[1]
  viability, T/C: 0.08%
[2]
  viability, T/C: 0.24%
Second compound 0.316 µM, first compound 0.000316 µM
  viability, T/C: 7.18%
Second compound 0.316 µM, first compound 0.001 µM
  viability, T/C: 0.45%
Second compound 0.316 µM, first compound 0.00316 µM
  viability, T/C: 0.63%
Second compound 0.316 µM, first compound 0.01 µM
  viability, T/C: 0.39%
[3]
  viability, T/C: 0.44%
[4]
  viability, T/C: 1.89%
Second compound 1 µM, first compound 0.000316 µM
  viability, T/C: 11.7%
Second compound 1 µM, first compound 0.001 µM
  viability, T/C: 0.44%
Second compound 1 µM, first compound 0.00316 µM
  viability, T/C: 0.91%
Second compound 1 µM, first compound 0.01 µM
  viability, T/C: 0.17%
[5]
  viability, T/C: 0.08%
[6]
  viability, T/C: 0.43%
Second compound 3.16 µM, first compound 0.000316 µM
  viability, T/C: 7.91%
Second compound 3.16 µM, first compound 0.001 µM
  viability, T/C: 0.49%
Second compound 3.16 µM, first compound 0.00316 µM
  viability, T/C: 0.13%
Second compound 3.16 µM, first compound 0.01 µM
  viability, T/C: 0.07%
[7]
  viability, T/C: 0.75%
[8]
  viability, T/C: 0.19%
Second compound 10 µM, first compound 0.000316 µM
  viability, T/C: 5.64%
Second compound 10 µM, first compound 0.001 µM
  viability, T/C: 0.22%
Second compound 10 µM, first compound 0.00316 µM
  viability, T/C: 0.25%
Second compound 10 µM, first compound 0.01 µM
  viability, T/C: 0.49%
[9]
  viability, T/C: 0.46%
[10]
  viability, T/C: 0.24%

## CCc1c2c(nc3ccc(O)cc13)-c1cc3c(c(=O)n1C2)COC(=O)[C@]3(O)CC + NC1CCC(NC2CC2c2ccccc2)CC1
Second compound 0.1 µM
  IC50: < 0.949 nM
Second compound 0.316 µM
  IC50: < 0.949 nM
Second compound 1 µM
  IC50: < 0.949 nM
Second compound 3.16 µM
  IC50: < 0.949 nM
Second compound 10 µM
  IC50: < 0.949 nM
[11]
  viability, T/C: 20.5%
[12]
  viability, T/C: 10.8%
[13]
  viability, T/C: 2.17%
[14]
  viability, T/C: 0.64%
[15]
  viability, T/C: 0.13%
[16]
  viability, T/C: 0.25%
[17]
  viability, T/C: 20.3%
[18]
  viability, T/C: 12.4%
[19]
  viability, T/C: 3.03%
[20]
  viability, T/C: 1.28%
[21]
  viability, T/C: 0.23%
[22]
  viability, T/C: 0.24%
[23]
  viability, T/C: 20.2%
[24]
  viability, T/C: 13.4%
[25]
  viability, T/C: 2.69%
[26]
  viability, T/C: 0.95%
[27]
  viability, T/C: 1.3%
[28]
  viability, T/C: 0.52%
[29]
  viability, T/C: 20.9%
[30]
  viability, T/C: 10.9%
[31]
  viability, T/C: 2.33%
[32]
  viability, T/C: 0.37%
[33]
  viability, T/C: 0.36%
[34]
  viability, T/C: 0.53%
[35]
  viability, T/C: 20.1%
[36]
  viability, T/C: 10.3%
[37]
  viability, T/C: 2.5%
[38]
  viability, T/C: 0.37%
[39]
  viability, T/C: 0.19%
[40]
  viability, T/C: 0.32%

## Nc1ccccc1NC(=O)c1ccc(CNC(=O)OCc2cccnc2)cc1 + NC1CCC(NC2CC2c2ccccc2)CC1
Second compound 0.1 µM
  IC50: 124 nM
Second compound 0.316 µM
  IC50: 103 nM
Second compound 1 µM
  IC50: 111 nM
Second compound 3.16 µM
  IC50: 69.9 nM
Second compound 10 µM
  IC50: 32.2 nM
[13]
  viability, T/C: 82.9%
[14]
  viability, T/C: 74.9%
[15]
  viability, T/C: 56.4%
[16]
  viability, T/C: 28.5%
Second compound 0.1 µM, first compound 0.949 µM
  viability, T/C: 17.6%
Second compound 0.1 µM, first compound 3 µM
  viability, T/C: 1.21%
[19]
  viability, T/C: 77.4%
[20]
  viability, T/C: 66.9%
[21]
  viability, T/C: 53.4%
[22]
  viability, T/C: 28.7%
Second compound 0.316 µM, first compound 0.949 µM
  viability, T/C: 15.9%
Second compound 0.316 µM, first compound 3 µM
  viability, T/C: 1.67%
[25]
  viability, T/C: 69%
[26]
  viability, T/C: 71.6%
[27]
  viability, T/C: 49.6%
[28]
  viability, T/C: 32.1%
Second compound 1 µM, first compound 0.949 µM
  viability, T/C: 17.1%
Second compound 1 µM, first compound 3 µM
  viability, T/C: 0.88%
[31]
  viability, T/C: 79.5%
[32]
  viability, T/C: 61.3%
[33]
  viability, T/C: 47.6%
[34]
  viability, T/C: 26.4%
Second compound 3.16 µM, first compound 0.949 µM
  viability, T/C: 18.2%
Second compound 3.16 µM, first compound 3 µM
  viability, T/C: 1.11%
[37]
  viability, T/C: 74%
[38]
  viability, T/C: 49%
[39]
  viability, T/C: 35.8%
[40]
  viability, T/C: 17%
Second compound 10 µM, first compound 0.949 µM
  viability, T/C: 9.24%
Second compound 10 µM, first compound 3 µM
  viability, T/C: 0.63%

## Nc1ccn(C2OC(CO)C(O)C2(F)F)c(=O)n1 (stereo not given) + NC1CCC(NC2CC2c2ccccc2)CC1
Second compound 0.1 µM
  IC50: 2.48 nM
Second compound 0.316 µM
  IC50: 2.57 nM
Second compound 1 µM
  IC50: 2.34 nM
Second compound 3.16 µM
  IC50: 2.4 nM
Second compound 10 µM
  IC50: 1.98 nM
[11]
  viability, T/C: 75.4%
[12]
  viability, T/C: 44.4%
[13]
  viability, T/C: 43.3%
[14]
  viability, T/C: 39.6%
[15]
  viability, T/C: 40.3%
[16]
  viability, T/C: 36.5%
[17]
  viability, T/C: 76.9%
[18]
  viability, T/C: 45.8%
[19]
  viability, T/C: 33.2%
[20]
  viability, T/C: 36%
[21]
  viability, T/C: 34.5%
[22]
  viability, T/C: 34.1%
[23]
  viability, T/C: 65.5%
[24]
  viability, T/C: 48.3%
[25]
  viability, T/C: 33.5%
[26]
  viability, T/C: 42.7%
[27]
  viability, T/C: 40.5%
[28]
  viability, T/C: 37.8%
[29]
  viability, T/C: 63%
[30]
  viability, T/C: 46.3%
[31]
  viability, T/C: 41.5%
[32]
  viability, T/C: 42.8%
[33]
  viability, T/C: 40.7%
[34]
  viability, T/C: 36.1%
[35]
  viability, T/C: 61.1%
[36]
  viability, T/C: 44.9%
[37]
  viability, T/C: 36.8%
[38]
  viability, T/C: 42.2%
[39]
  viability, T/C: 38.3%
[40]
  viability, T/C: 42.7%

## O=C(c1cc(Cc2n[nH]c(=O)c3ccccc23)ccc1F)N1CCN(C(=O)C2CC2)CC1 + NC1CCC(NC2CC2c2ccccc2)CC1
Second compound 0.1 µM
  IC50: > 10000 nM
Second compound 0.316 µM
  IC50: > 10000 nM
Second compound 1 µM
  IC50: > 10000 nM
Second compound 3.16 µM
  IC50: > 10000 nM
Second compound 10 µM
  IC50: > 10000 nM
[1]
  viability, T/C: 85.8%
[2]
  viability, T/C: 93.2%
Second compound 0.1 µM, first compound 0.316 µM
  viability, T/C: 91.7%
Second compound 0.1 µM, first compound 1 µM
  viability, T/C: 85.3%
Second compound 0.1 µM, first compound 3.16 µM
  viability, T/C: 83.9%
Second compound 0.1 µM, first compound 10 µM
  viability, T/C: 65%
[3]
  viability, T/C: 87.2%
[4]
  viability, T/C: 93.7%
Second compound 0.316 µM, first compound 0.316 µM
  viability, T/C: 90.7%
Second compound 0.316 µM, first compound 1 µM
  viability, T/C: 86%
Second compound 0.316 µM, first compound 3.16 µM
  viability, T/C: 62.8%
Second compound 0.316 µM, first compound 10 µM
  viability, T/C: 65.8%
[5]
  viability, T/C: 77.4%
[6]
  viability, T/C: 84.4%
Second compound 1 µM, first compound 0.316 µM
  viability, T/C: 83.6%
Second compound 1 µM, first compound 1 µM
  viability, T/C: 78.6%
Second compound 1 µM, first compound 3.16 µM
  viability, T/C: 72.6%
Second compound 1 µM, first compound 10 µM
  viability, T/C: 61.3%
[7]
  viability, T/C: 74.5%
[8]
  viability, T/C: 73.9%
Second compound 3.16 µM, first compound 0.316 µM
  viability, T/C: 77.6%
Second compound 3.16 µM, first compound 1 µM
  viability, T/C: 66.3%
Second compound 3.16 µM, first compound 3.16 µM
  viability, T/C: 58.1%
Second compound 3.16 µM, first compound 10 µM
  viability, T/C: 66.5%
[9]
  viability, T/C: 74.2%
[10]
  viability, T/C: 77.5%
Second compound 10 µM, first compound 0.316 µM
  viability, T/C: 69%
Second compound 10 µM, first compound 1 µM
  viability, T/C: 69.4%
Second compound 10 µM, first compound 3.16 µM
  viability, T/C: 58.7%
Second compound 10 µM, first compound 10 µM
  viability, T/C: 55.9%
